Measured values taken from patent US20250282802A1, “P[…] AND METHODS” (priority 2020, published 2025).
Read-outs that look alike come from different tables or passages of the source.

Assays:
Assay type in all cases: cell-based
Candida albicans SN250 = assay: Fungicidal bioassay (MIC), Candida albicans
Protocol: Bacteria, plasmids and growth conditions. Bacterial strains, plasmids and primers used in this study are described in Table 3 and 4. General chemical and molecular biology reagents were purchased from Sigma-Aldrich or New England Biolabs. Phosphinothricin (glufosinate) was purchased from GoldBio (CAS #77182-82-2). Standard bacterial growth media were prepared as described (Current Protocols in Molecular Biology 2019, 125:e81, e82, e83). E. coli strains were typically grown at 37° C.; P. ananatis strains were typically grown at 30° C. Phosphonate induction media (PIM) was prepared as follows: 8.37 g/L MOPS, 0.72 g/L Tricine, 0.58 g/L NaCl, 0.51 g/L NH4Cl, 1.6 g/L KOH, 0.1 g/L MgCl2·6H2O, 0.05 g/L K2SO4, 0.2 g/L K2HIPO4 were dissolved H2O and steam sterilized for 20 min at 121° C. […]
(§1) Fungicidal bioassays. […] Minimum Inhibitory Concentration (MIC) was determined visually by finding the concentration of compound at which there was no visual difference between that concentration and the uninoculated media control.

[1] = test system: Saccharomyces cerevisiae X2180-1A; assay: Fungicidal bioassay (MIC), Saccharomyces cerevisiae; conditions: for MIC: Saccharomyces cerevisiae, X21801A, 48 hrs growth, CLSI
Protocol: Bacteria, plasmids and growth conditions. Bacterial strains, plasmids and primers used in this study are described in Table 3 and 4. General chemical and molecular biology reagents were purchased from Sigma-Aldrich or New England Biolabs. Phosphinothricin (glufosinate) was purchased from GoldBio (CAS #77182-82-2). Standard bacterial growth media were prepared as described (Current Protocols in Molecular Biology 2019, 125:e81, e82, e83). E. coli strains were typically grown at 37° C.; P. ananatis strains were typically grown at 30° C. Phosphonate induction media (PIM) was prepared as follows: 8.37 g/L MOPS, 0.72 g/L Tricine, 0.58 g/L NaCl, 0.51 g/L NH4Cl, 1.6 g/L KOH, 0.1 g/L MgCl2·6H2O, 0.05 g/L K2SO4, 0.2 g/L K2HIPO4 were dissolved H2O and steam sterilized for 20 min at 121° C. After cooling, 1× sterile trace element solution was added (1000× stock: 1.5 g/L nitrilotriacetic acid trisodium salt, 0.8 g/L Fe(NH4)2(SO4)2·7H2O, 0.2 g/L Na2SeO3, 0.1 g/L CoCl2·6H2O, 0.1 g/L MnSO4·H2O, 0.1 g/L Na2MoO4·2H2O, 0.1 g/L Na2WO4·2H2O, 0.1 g/L ZnSO4·7H2O, 0.1 g/L NiCl2·6H2O, 0.01 g/L H3BO3, 0.01 g/L CuSO4·5H2O) followed by addition of 1% (v/v) sterile glycerol and 50 μg/mL sterile kanamycin. For culturing of Candida and Saccharomyces strains, Rosewell Park Memorial Institute 1640 medium (RPMI; Sigma-Aldrich R6504) was used for liquid culturing and Sabouraud Dextrose Agar (SDA; Difco™ 210950) for solid plating unless otherwise specified. For Aspergillus strains, Rosewell Park Memorial Institute 1640 medium (RPMI) was used for liquid culturing and Potato Dextrose Agar (PDA; Difco™ 213400) was used for solid plating unless otherwise specified. YMM medium (6.7 g/L yeast nitrogen base without amino acids [BD Difco™ 291940], 20 g/L glucose, 1× trace element solution) was used as minimal media for fungal strains.
as §1

[2] = test system: Enterococcus faecalis ATCC 19433; assay: Antibacterial bioassay (MIC), Enterococcus faecalis; conditions: ATCC19433, Mueller-Hinton 2 medium, CLSI, read-out: MIC, Rich medium
Protocol: (§2) Antibacterial bioassays. Susceptibility testing for the ESKAPE pathogens and Salmonella enterica LT2 was performed using a Kirby-Bauer method as outlined by the Clinical and Laboratory Standards Institute (CLSI). For rich media bioassays, Mueller Hinton Broth 2 (MH-2, Sigma-Aldrich, 90922) was used for all strains except 1% BHI was supplemented for Enterococcus faecalis ATCC 19433. For minimal media bioassays, glucose-MOPS minimal medium was used. Briefly, overnight bacterial cultures were sub-cultured and inoculated into 5 mL top agar (0.7% agar) for final concentration of 5×10^5 CFU/mL. Then, 20 μL of a compound 2-fold dilution series (200, 100, 50, 25, 12.5, 6.25 μM in water) was spotted on 6 mm diameter blank paper discs (BD BBL™ 231039). Control discs received 20 μL of 50 mg/mL kanamycin. Plates were incubated at 35° C. for 20-24 hours. […] Sensitivity of the IPTG-inducible phosphonate uptake strain WM6242 to pantaphos was tested using a disk diffusion assay. Plates containing growth medium were overlayed with 5 mL of top agar (0.7% agar) inoculated with 100 μL (OD600=0.8) of the phosphonate-specific E. coli indicator strain (WM6242) with or without addition of 1 mM IPTG. WM6242 is engineered with an IPTG-inducible, non-specific phosphonate uptake system (phnCDE). […]

[3] = test system: Staphylococcus aureus ATCC 29213; assay: Antibacterial bioassay (MIC), Staphylococcus aureus; conditions: CLSI
Protocol: as §2

[4] = test system: Acinetobacter baumannii ATCC 19606; assay: Antibacterial bioassay (MIC), Acinetobacter baumannii; conditions: CLSI
Protocol: as §2

O=C(O)/C=C(\C(=O)O)C(O)P(=O)(O)O (stereo not shown) [pantaphos, 2-(hydroxy(phosphono)methyl)maleate]
MIC (Candida albicans SN250; Candida albicans, SN250, RPMI 1640 medium, 48 hrs growth, CLSI, read-out: MIC, Rich medium): > 125 µM | effect on the growth of fungi, in words (Candida albicans SN250; rich or minimal media): no effect on the growth | MIC ([1]; M9 minimal medium, read-out: MIC, Minimal medium): > 62.5 µM | MIC ([1]; RPMI 1640 medium, read-out: MIC, Rich medium): > 125 µM | effect on the growth of fungi, in words ([1]; rich or minimal media): no effect on the growth | MIC [2]: > 200 µM | MIC ([3]; ATCC29213, Mueller-Hinton 2 medium, read-out: MIC, Rich medium): > 200 µM | MIC ([3]; ATCC29213, glucose-MOPS minimal medium, read-out: MIC, Minimal medium): > 200 µM | MIC ([4]; ATCC19606, Mueller-Hinton 2 medium, read-out: MIC, Rich medium): > 200 µM | MIC ([4]; ATCC19606, glucose-MOPS minimal medium, read-out: MIC, Minimal medium): > 200 µM
